Where two headings read alike, the source gives them in different places.
What was measured:
[1] = test system: Z-138 cells; test: Z-138 Proliferation Assay (Cell Titer Glo, 5 days); type: cell-based; settings: Homo sapiens
Outline: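 Exponentially growing Z-138 cells (10,000 cells/ml) in RPMI 1640 with 10% FBS are exposed to nine-point 3-fold dilutions (final top concentration 20 μM, 0.2% DMSO) for 5 days at 37° C. Viability is measured as ATP by CellTiter-Glo luminescence. The 50% inhibitory concentration comes from a 4-parameter fit.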

[2] = target: T1, PRMT5/MEP50 (Homo sapiens, UniProt O14744); test: PRMT5 Biochemical Assay (PRMT5/MEP50 enzyme assay on peptide substrate, 3H-SAM Flashplate); settings: read-out: Biochemical IC50
T1 construct: Expressed full-length human Flag-PRMT5/6His-MeP50 protein complex was purified; made in house; host or cells: Spodoptera frugiperda (SF9) insect cells, baculovirus (pDEST8)

[3] = 120 h, Table A-2, 5 days, top concentration 20 μM
[4] = Table A-2, PRMT5/MEP50 4 nM, 3H-SAM 75 nM, peptide 40 nM

T1 sequence (O14744 with tags, fused parts or gaps): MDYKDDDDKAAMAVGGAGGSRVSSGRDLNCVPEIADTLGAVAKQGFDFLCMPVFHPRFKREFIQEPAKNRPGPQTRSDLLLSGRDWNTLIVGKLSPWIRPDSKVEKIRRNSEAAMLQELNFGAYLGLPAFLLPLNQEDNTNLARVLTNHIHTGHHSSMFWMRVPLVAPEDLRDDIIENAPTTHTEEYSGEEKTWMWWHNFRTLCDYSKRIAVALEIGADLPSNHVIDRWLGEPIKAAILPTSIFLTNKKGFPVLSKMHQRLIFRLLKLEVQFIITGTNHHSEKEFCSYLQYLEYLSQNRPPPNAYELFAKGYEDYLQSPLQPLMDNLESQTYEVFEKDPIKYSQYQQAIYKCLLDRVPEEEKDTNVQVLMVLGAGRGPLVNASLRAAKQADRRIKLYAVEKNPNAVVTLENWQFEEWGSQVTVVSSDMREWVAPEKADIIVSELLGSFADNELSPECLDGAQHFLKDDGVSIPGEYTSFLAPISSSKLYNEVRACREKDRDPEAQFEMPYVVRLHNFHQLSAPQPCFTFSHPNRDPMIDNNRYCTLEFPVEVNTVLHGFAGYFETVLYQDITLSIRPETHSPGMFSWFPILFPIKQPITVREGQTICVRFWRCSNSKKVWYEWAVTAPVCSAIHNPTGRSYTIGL
T1 sequence (Q9BQA1 with tags, fused parts or gaps partner limits assumed): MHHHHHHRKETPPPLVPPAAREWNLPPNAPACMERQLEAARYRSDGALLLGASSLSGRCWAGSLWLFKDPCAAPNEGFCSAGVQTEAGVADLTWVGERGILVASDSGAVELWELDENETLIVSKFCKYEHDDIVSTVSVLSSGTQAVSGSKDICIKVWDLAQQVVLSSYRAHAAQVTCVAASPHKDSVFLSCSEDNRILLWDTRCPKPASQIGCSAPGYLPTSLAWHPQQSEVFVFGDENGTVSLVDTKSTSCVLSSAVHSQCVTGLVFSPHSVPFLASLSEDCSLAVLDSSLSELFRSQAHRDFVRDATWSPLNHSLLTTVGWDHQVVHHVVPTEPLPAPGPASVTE

Compound	EC50 ([1]; Table D-2) [µM]	IC50 ([2]; Table D-2) [µM]	EC50 [1, 3] [µM]	IC50 [2, 4] [µM]
OC(COc1cccc(-c2cc(OC(F)(F)F)ccc2Cl)c1)CN1CCc2ccccc2C1 (stereo not drawn) [Compound D200]	> 20	0.101 to 1		
CN1CCN(c2ccc(-c3cccc(OCC(O)CN4CCc5ccccc5C4)c3)cn2)CC1 (stereo not drawn) [Compound D149]	1 to 10	0.101 to 1		
O=C(COc1cccc2nccnc12)NCC(O)CN1CCc2ccccc2C1 (stereo not drawn) [Compound A92]			1 to 10	< 0.1
Cn1ncc2c(OCC(=O)NCC(O)CN3CCc4ccccc4C3)cccc21 (stereo not drawn) [Compound A82]			1 to 10	< 0.1
Cn1ccc2ccc(-c3cccc(OCC(O)CN4CCc5ccccc5C4)c3)cc21 (stereo not drawn) [Compound D147]	10 to 40	0.101 to 1		
CN1CCOc2cccc(OCC(=O)NCC(O)CN3CCc4ccccc4C3)c21 (stereo not drawn) [Compound A81]			0.101 to 1	< 0.1
OC(COc1cccc(-c2ccc3cnoc3c2)c1)CN1CCc2ccccc2C1 (stereo not drawn) [Compound D166]	> 20	1 to 10		
O=C(COc1cccc(C(=O)N2CCOCC2)c1)NCC(O)CN1CCc2ccccc2C1 (stereo not drawn) [Compound A83]			10 to 50	0.101 to 1
OC(COc1cccc(-c2csc3ccccc23)c1)CN1CCc2ccccc2C1 (stereo not drawn) [Compound D170]	> 20	0.101 to 1		
Cn1cnc2ccc(-c3cccc(NCC(O)CN4CCc5ccccc5C4)n3)cc21 (stereo not drawn) [Compound D117]	> 20	0.101 to 1		
Cn1ccc2ccc(-c3cccc(OCC(O)CN4CCc5ccccc5C4)c3)nc21 (stereo not drawn) [Compound D176]	> 20	< 0.1		
COc1ccc(Cl)cc1-c1cccc(OCC(O)CN2CCc3ccccc3C2)c1 (stereo not drawn) [Compound D134]	> 20	0.101 to 1		
COC(=O)c1cccc(-c2cccc(OCC(O)CN3CCc4ccccc4C3)c2)c1 (stereo not drawn) [Compound D135]	> 20	0.101 to 1		
O=C(COc1ccccc1N1CCNCC1)NCC(O)CN1CCc2ccccc2C1 (stereo not drawn) [Compound A79]			1 to 10	< 0.1
Cn1cnc2ccc(-c3ccnc(NCC(O)CN4CCc5ccccc5C4)n3)cc21 (stereo not drawn) [Compound D119]	1 to 10	0.101 to 1		
Cn1ccc2cnc(-c3cccc(OCC(O)CN4CCc5ccccc5C4)c3)nc21 (stereo not drawn) [Compound D141]	> 20	< 0.1		
Cc1ccncc1-c1cccc(OCC(O)CN2CCc3ccccc3C2)c1 (stereo not drawn) [Compound D113]	10 to 40	0.101 to 1		

Compound	EC50 ([1]; Table D-2) [µM]	IC50 ([2]; Table D-2) [µM]	EC50 [1, 3] [µM]	IC50 [2, 4] [µM]
Cn1nccc1C(=O)Nc1cccc(OCC(O)CN2CCc3ccccc3C2)c1 (stereo not drawn) [Compound D160]	> 20	1 to 10		
NC(=O)c1ccc(-c2cccc(OCC(O)CN3CCc4ccccc4C3)c2)cc1 (stereo not drawn) [Compound D152]	> 20	0.101 to 1		
Cn1cnc2ccc(-c3ccnc(NCC(O)CN4CCc5ccccc5C4)c3)cc21 (stereo not drawn) [Compound D118]	1 to 10	< 0.1		
Cn1cnc2ccc(-c3cccc(NCC(O)CN4CCc5ccccc5C4)c3)cc21 (stereo not drawn) [Compound D102]	1 to 10	< 0.1		
Cn1cnc2ccc(-c3cncc(NCC(O)CN4CCc5ccccc5C4)c3)cc21 (stereo not drawn) [Compound D199]	1 to 10	< 0.1		
O=C(COc1cccc2c1CCNC2)NCC(O)CN1CCc2ccccc2C1 (stereo not drawn) [Compound A91]			1 to 10	< 0.1
OC(COc1cccc(-c2ccc(C(F)(F)F)cc2C(F)(F)F)c1)CN1CCc2ccccc2C1 (stereo not drawn) [Compound D124]	> 20	0.101 to 1		
Cn1cnc2ccc(-c3cc(NCC(O)CN4CCc5ccccc5C4)ncn3)cc21 (stereo not drawn) [Compound D207]	1 to 10	0.101 to 1		
O=C(Nc1cccc(OCC(O)CN2CCc3ccccc3C2)c1)c1cncnc1 (stereo not drawn) [Compound D161]	> 20	1 to 10		
CC(C)Oc1ccc(F)c(-c2cccc(OCC(O)CN3CCc4ccccc4C3)c2)c1 (stereo not drawn) [Compound D201]	> 20	0.101 to 1		
Cn1cnc2ccc(-c3cccc(OC[C@H](O)CN4CCc5ccccc5C4)c3)cc21 [Compound D174]	1 to 10	< 0.1		
O=C(c1cccc(-c2cccc(OCC(O)CN3CCc4ccccc4C3)c2)c1)N1CCOCC1 (stereo not drawn) [Compound D126]	> 20	0.101 to 1		
CN(C)CCOc1ccccc1OCC(=O)NC[C@H](O)CN1CCc2ccccc2C1 [Compound A88]			10 to 50	< 0.1
N#Cc1cccc(-c2cccc(OCC(O)CN3CCc4ccccc4C3)c2)c1 (stereo not drawn) [Compound D172]	> 20	0.101 to 1		
O=C(COc1ccccc1N1CCOCC1)NC[C@H](O)CN1CCc2ccccc2C1 [Compound A77]			1 to 10	< 0.1
COc1ccc(-c2cccc(OCC(O)CN3CCc4ccccc4C3)c2)cc1Cl (stereo not drawn) [Compound D168]	> 20	0.101 to 1		
